# Data reported in publication PMC11921695 (BMC Cancer, 2025).
# Test system: patients with HIV-associated KS
smiles,measurement,setting,value
"Cn1cnc2c(F)c(Nc3ccc(Br)cc3Cl)c(C(=O)NOCCO)cc21 [selumetinib, 6-(4-Bromo-2-chloro-phenylamino)-7-fluro-3-methyl-3 H-benzoimidazole-5-carboxylic acid (2-hydroxy-ethoxy)-amide hydrogen sulphate]","grade 3 ARs, all rash acneiform",75 mg bd selumetinib,three
same,patients who experienced at least one adverse event (AE),16 treated patients,16
same,ALT Increased: Number of AEs reported,CTCAE Grade ≤2,13
same,AST Increased: Number of AEs reported,CTCAE Grade ≤2,11
same,Albumin Decreased: Number of AEs reported,CTCAE Grade ≤2,12
same,CPK Increased: Number of AEs reported,CTCAE Grade ≤2,14
same,Fatigue: Number of AEs reported,CTCAE Grade ≤2,10
same,Nausea: Number of AEs reported,CTCAE Grade ≤2,11
same,Red Blood Cell Count Decreased: Number of AEs reported,CTCAE Grade ≤2,22
same,Vomiting: Number of AEs reported,CTCAE Grade ≤2,11
same,Blood and lymphatic system disorders: Adverse Events Grade 1 E,"E = events, any dose",5
same,Blood and lymphatic system disorders: Adverse Events Grade 2 E,"E = events, any dose",1
same,Blood and lymphatic system disorders: Adverse Events Grade3 E,"E = events, any dose",0
same,Blood and lymphatic system disorders: Adverse Reactions Grade 1 E,"E = events, any dose",4
same,Blood and lymphatic system disorders: Adverse Reactions Grade 2 E,"E = events, any dose",1
same,Blood and lymphatic system disorders: Adverse Reactions Grade 3 E,"E = events, any dose",0
same,Cardiac disorders: Adverse Events Grade 1 E,"E = events, any dose",1
same,Cardiac disorders: Adverse Events Grade 2 E,"E = events, any dose",0
same,Cardiac disorders: Adverse Events Grade3 E,"E = events, any dose",0
same,Cardiac disorders: Adverse Reactions Grade 1 E,"E = events, any dose",0
same,Cardiac disorders: Adverse Reactions Grade 2 E,"E = events, any dose",0
same,Cardiac disorders: Adverse Reactions Grade 3 E,"E = events, any dose",0
same,Eye disorders: Adverse Events Grade 1 E,"E = events, any dose",9
same,Eye disorders: Adverse Events Grade 2 E,"E = events, any dose",3
same,Eye disorders: Adverse Events Grade3 E,"E = events, any dose",0
same,Eye disorders: Adverse Reactions Grade 1 E,"E = events, any dose",6
same,Eye disorders: Adverse Reactions Grade 2 E,"E = events, any dose",3
same,Eye disorders: Adverse Reactions Grade 3 E,"E = events, any dose",0
same,Gastrointestinal disorders: Adverse Events Grade 1 E,"E = events, any dose",47
same,Gastrointestinal disorders: Adverse Events Grade 2 E,"E = events, any dose",13
same,Gastrointestinal disorders: Adverse Events Grade3 E,"E = events, any dose",0
same,Gastrointestinal disorders: Adverse Reactions Grade 1 E,"E = events, any dose",44
same,Gastrointestinal disorders: Adverse Reactions Grade 2 E,"E = events, any dose",9
same,Gastrointestinal disorders: Adverse Reactions Grade 3 E,"E = events, any dose",0
same,General disorders and administration site conditions: Adverse Events Grade 1 E,"E = events, any dose",33
same,General disorders and administration site conditions: Adverse Events Grade 2 E,"E = events, any dose",5
same,General disorders and administration site conditions: Adverse Events Grade3 E,"E = events, any dose",1
same,General disorders and administration site conditions: Adverse Reactions Grade 1 E,"E = events, any dose",23
same,General disorders and administration site conditions: Adverse Reactions Grade 2 E,"E = events, any dose",2
same,General disorders and administration site conditions: Adverse Reactions Grade 3 E,"E = events, any dose",0
same,Infections and infestations: Adverse Events Grade 1 E,"E = events, any dose",2
same,Infections and infestations: Adverse Events Grade 2 E,"E = events, any dose",6
same,Infections and infestations: Adverse Events Grade3 E,"E = events, any dose",0
same,Infections and infestations: Adverse Reactions Grade 1 E,"E = events, any dose",1
same,Infections and infestations: Adverse Reactions Grade 2 E,"E = events, any dose",4
same,Infections and infestations: Adverse Reactions Grade 3 E,"E = events, any dose",0
same,"Injury, poisoning and procedural complications: Adverse Events Grade 1 E","E = events, any dose",2
same,"Injury, poisoning and procedural complications: Adverse Events Grade 2 E","E = events, any dose",3
same,"Injury, poisoning and procedural complications: Adverse Events Grade3 E","E = events, any dose",0
same,"Injury, poisoning and procedural complications: Adverse Reactions Grade 1 E","E = events, any dose",0
same,"Injury, poisoning and procedural complications: Adverse Reactions Grade 2 E","E = events, any dose",0
same,"Injury, poisoning and procedural complications: Adverse Reactions Grade 3 E","E = events, any dose",0
same,Investigations: Adverse Events Grade 1 E,"E = events, any dose",133
same,Investigations: Adverse Events Grade 2 E,"E = events, any dose",7
same,Investigations: Adverse Events Grade3 E,"E = events, any dose",2
same,Investigations: Adverse Reactions Grade 1 E,"E = events, any dose",81
same,Investigations: Adverse Reactions Grade 2 E,"E = events, any dose",6
same,Investigations: Adverse Reactions Grade 3 E,"E = events, any dose",0
same,Metabolism and nutrition disorders: Adverse Events Grade 1 E,"E = events, any dose",13
same,Metabolism and nutrition disorders: Adverse Events Grade 2 E,"E = events, any dose",0
same,Metabolism and nutrition disorders: Adverse Events Grade3 E,"E = events, any dose",0
same,Metabolism and nutrition disorders: Adverse Reactions Grade 1 E,"E = events, any dose",9
same,Metabolism and nutrition disorders: Adverse Reactions Grade 2 E,"E = events, any dose",0
same,Metabolism and nutrition disorders: Adverse Reactions Grade 3 E,"E = events, any dose",0
same,Musculoskeletal and connective tissue disorders: Adverse Events Grade 1 E,"E = events, any dose",4
same,Musculoskeletal and connective tissue disorders: Adverse Events Grade 2 E,"E = events, any dose",0
same,Musculoskeletal and connective tissue disorders: Adverse Events Grade3 E,"E = events, any dose",0
same,Musculoskeletal and connective tissue disorders: Adverse Reactions Grade 1 E,"E = events, any dose",2
same,Musculoskeletal and connective tissue disorders: Adverse Reactions Grade 2 E,"E = events, any dose",0
same,Musculoskeletal and connective tissue disorders: Adverse Reactions Grade 3 E,"E = events, any dose",0
same,Nervous system disorders: Adverse Events Grade 1 E,"E = events, any dose",7
same,Nervous system disorders: Adverse Events Grade 2 E,"E = events, any dose",0
same,Nervous system disorders: Adverse Events Grade3 E,"E = events, any dose",0
same,Nervous system disorders: Adverse Reactions Grade 1 E,"E = events, any dose",5
same,Nervous system disorders: Adverse Reactions Grade 2 E,"E = events, any dose",0
same,Nervous system disorders: Adverse Reactions Grade 3 E,"E = events, any dose",0
same,Psychiatric disorders: Adverse Events Grade 1 E,"E = events, any dose",3
same,Psychiatric disorders: Adverse Events Grade 2 E,"E = events, any dose",0
same,Psychiatric disorders: Adverse Events Grade3 E,"E = events, any dose",0
same,Psychiatric disorders: Adverse Reactions Grade 1 E,"E = events, any dose",3
same,Psychiatric disorders: Adverse Reactions Grade 2 E,"E = events, any dose",0
same,Psychiatric disorders: Adverse Reactions Grade 3 E,"E = events, any dose",0
same,Renal and urinary disorders: Adverse Events Grade 1 E,"E = events, any dose",2
same,Renal and urinary disorders: Adverse Events Grade 2 E,"E = events, any dose",0
same,Renal and urinary disorders: Adverse Events Grade3 E,"E = events, any dose",0
same,Renal and urinary disorders: Adverse Reactions Grade 1 E,"E = events, any dose",1
same,Renal and urinary disorders: Adverse Reactions Grade 2 E,"E = events, any dose",0
same,Renal and urinary disorders: Adverse Reactions Grade 3 E,"E = events, any dose",0
same,"Respiratory, thoracic and mediastinal disorders: Adverse Events Grade 1 E","E = events, any dose",11
same,"Respiratory, thoracic and mediastinal disorders: Adverse Events Grade 2 E","E = events, any dose",2
same,"Respiratory, thoracic and mediastinal disorders: Adverse Events Grade3 E","E = events, any dose",0
same,"Respiratory, thoracic and mediastinal disorders: Adverse Reactions Grade 1 E","E = events, any dose",5
same,"Respiratory, thoracic and mediastinal disorders: Adverse Reactions Grade 2 E","E = events, any dose",1
same,"Respiratory, thoracic and mediastinal disorders: Adverse Reactions Grade 3 E","E = events, any dose",0
same,Skin and subcutaneous tissue disorders: Adverse Events Grade 1 E,"E = events, any dose",29
same,Skin and subcutaneous tissue disorders: Adverse Events Grade 2 E,"E = events, any dose",17
same,Skin and subcutaneous tissue disorders: Adverse Events Grade3 E,"E = events, any dose",3
same,Skin and subcutaneous tissue disorders: Adverse Reactions Grade 1 E,"E = events, any dose",24
same,Skin and subcutaneous tissue disorders: Adverse Reactions Grade 2 E,"E = events, any dose",16
same,Skin and subcutaneous tissue disorders: Adverse Reactions Grade 3 E,"E = events, any dose",3
same,Vascular disorders: Adverse Events Grade 1 E,"E = events, any dose",2
same,Vascular disorders: Adverse Events Grade 2 E,"E = events, any dose",0
same,Vascular disorders: Adverse Events Grade3 E,"E = events, any dose",0
same,Vascular disorders: Adverse Reactions Grade 1 E,"E = events, any dose",0
same,Vascular disorders: Adverse Reactions Grade 2 E,"E = events, any dose",0
same,Vascular disorders: Adverse Reactions Grade 3 E,"E = events, any dose",0
same,Blood and lymphatic system disorders: Adverse Events Grade 1 N,"N = patients, any dose",4
same,Blood and lymphatic system disorders: Adverse Events Grade 2 N,"N = patients, any dose",1
